Tests used:
Type in all cases: cell-based, Chinese Hamster
[1] = tested on: Cell Line 1 (CHO) expressing Antibody 1; assay: Cell culture performance (cell growth, viability, titer), Cell Line 1 shake flask fed-batch culture; conditions: for cell growth profile vs unsupplemented control: 3 concentrations in CDFM up to 0.5 g/L (genistein) or 1 g/L (rutin, naringin); for cell growth profile vs unsupplemented control / relative harvest titer vs unsupplemented control: shake flask
Procedure: (§1) A recombinant Chinese Hamster Ovary (CHO) cell line (Cell Line 1) expressing a humanized monoclonal antibody (Antibody 1) was evaluated in 2 different cultures vessels (shaker flasks and 3 L laboratory-scale bioreactors). The cell line was of CHO DUX-B11 origin based on a DHFR (dihydrofolate reductase) expression system and cultured in a chemically defined basal media, and fed periodically with a chemically-defined feed media (CDFM). The media utilized throughout all of the experiments were chemically-defined, and both animal-component free, and protein-free. Each of the respective media were supplemented as needed with selected bioflavonoids to evaluate for their potential impact on the resulting acidic species profile. In preparation of the cultures, the cell lines were serially expanded through separate seed train inoculums to generate enough cells for inoculation. Process conditions utilized during the cultures were slightly different depending on the culture scale, but similar within each scale to the respective non-bioflavonoid supplemented control conditions. All bioflavonoids utilized were purchased from Sigma-Aldrich (St. Louis, Mo.).
(§2) Viable cell density (VCD) and cell viability values were measured through trypan blue exclusion via Cedex automated cell counters (Roche Applied Science, Indianapolis, Ind.), glucose and lactate values were measured with a ABL-805 (Radiometer Medical, Denmark) blood gas analyzer. Offline pH, dissolved oxygen (DO), and pCO2 measurements were performed as needed with an ABL-805 (Radiometer Medical, Denmark) blood gas analyzer. Osmolality was measured as needed on a Multi-Osmette 2430 osmometer (Precision Systems, Natick, Mass.).
Antibody titers were measured from crude cell culture harvests on a Poros A™ (Life Technologies, Carlsbad, Calif.) affinity column using an HPLC system operating with a low pH, step elution gradient with detection at 280 nm. Absolute concentrations were assigned with respect to reference standard calibration curves.
(§3) In this Example, EGCG was added into the feed (cell culture medium) at the concentration range of 5 mg/L (low), 20 mg/L (mid) and 50 mg/L (high) in a shaker experiment to determine the impact of EGCG on product quality of a humanized monoclonal antibody (Antibody 1). Detailed cell culture conditions are as described in Table 1.
(§4) However, it was not clear whether or not additional bioflavonoids would also have the same effects. To evaluate the impact of alternative bioflavonoids, fed-batch shake flask cultures were initiated with CDFM supplemented with 3 different concentrations of genistein, rutin, and naringin, in addition to EGCG. Cell growth, viability, as well as titers and acidic species variants were measured.
(§5) To evaluate the impact of other bioflavonoids, fed-batch shake flask cultures were initiated with CDFM supplemented with multiple concentrations of rutin. Cell growth, viability, as well as titers and acidic species variants were measured and shown in FIGS. 14 and 15, respectively.

[2] = tested on: Cell Line 1 (CHO) expressing Antibody 1; assay: Acidic species variants (WCX-10) of Antibody 1, Cell Line 1 shake flask fed-batch culture; conditions: shake flask
Procedure: as §1
(§6) Samples were analyzed using an HPLC system equipped with a ProPac WCX-10 analytical column (Thermo Scientific, Sunnyvale, Calif.). Approximately 100 μg of sample was loaded in 6% Buffer B (10 mM sodium phosphate, 500 mM NaCl, pH 5.5) and 94% Buffer A (10 mM sodium phosphate, pH 7.5). The column was run at a flow rate of 1.0 mL/min. The protein was eluted from the column by increasing the buffer B composition from 6% to 16% over 20 minutes. The protein peaks were measured using UV absorbance at 280 nm as the peaks eluted from the column. The column was regenerated using 100% buffer B followed be a re-equilibration period using initial condition before the injection of the next sample. Peaks eluting before the main peak were termed “acidic peaks” and peaks eluting after the main peak were called “basic peaks” (FIG. 2).
as §3, §4
(§7) Charge Heterogeneity via Weak Cation Exchange Chromatography-Samples were analyzed using an HPLC system equipped with a ProPac WCX-10 analytical column (Thermo Scientific, Sunnyvale, Calif.). Approximately 100 μg of sample was loaded in 6% Buffer B (10 mM sodium phosphate, 500 mM NaCl, pH 5.5) and 94% Buffer A (10 mM sodium phosphate, pH 7.5). The column was run at a flow rate of 1.0 mL/min. The protein was eluted from the column by increasing the buffer B composition from 6% to 16% over 20 minutes. The protein peaks were measured using UV absorbance at 280 nm as the peaks eluted from the column. The column was regenerated using 100% buffer B followed be a re-equilibration period using initial condition before the injection of the next sample. Peaks eluting before the main peak were termed ‘acidic peaks’ and peaks eluting after the main peak were called ‘basic peaks’ (FIG. 2).
as §5

[3] = tested on: Cell Line 1 (CHO) expressing Antibody 1; assay: Acidic species variants (WCX-10) of Antibody 1, Cell Line 1 3 L bioreactor fed-batch culture; conditions: 0.1 g/L in CDFM, Day 15 harvest
Procedure: as §1, §6
In the next experiment, lab-scale bioreactors were used to (1) confirm the shaker experiment results and (2) to determine whether higher concentration range of EGCG is suitable for supplementing into cell culture. EGCG was added to the feed of the batch culture at the concentrations of 20 mg/L (mid), 50 mg/L (high) and 125 mg/L (high+) and 250 mg/L (high++) in this reactor experiment.
Cell Line 1 was evaluated in larger-scale feed batch cultures with the feed media supplemented with various bioflavonoids. […] By contrast, cell growth performance was slightly different for the 0.1 g/L EGCG supplemented condition. […] However, the cell viability remained high at 0.1 g/L EGCG. All cultures were successfully harvested on Day 15 post-inoculation. The harvest titers measured from the evaluated cultures were similar.
Cell Line 1 was also evaluated in laboratory-scale fedbatch cultures with the feed media supplemented with various bioflavonoids. […] Cell growth performance was slightly different however with the 0.1 g/L EGCG supplemented condition. […] All cultures were able to be successfully harvested on Day 15 post-inoculation.

[4] = tested on: Cell Line 4 (CHO) expressing DVD2
Procedure: (§8) Four different recombinant Chinese Hamster Ovary (CHO) cell lines expressing four different recombinant glycoproteins were evaluated in either shaker flask culture, or 3 L laboratory scale bioreactors. Cell Line 1 was genetically engineered to express Antibody 1, Cell Line 2 was genetically engineered to express Antibody 2, Cell Line 3 was genetically engineered to express dual variable domain immunoglobulin 1 (DVD1) and Cell Line 4 was genetically engineered to express dual variable domain immunoglobulin 2 (DVD2).
as §2, with “pCO2 (Dissolved carbon dioxide)” for “pCO2”
Protein A Affinity Chromatography-Antibody titers were measured from crude cell culture harvests on a Poros ATM (Life Technologies, Carlsbad, Calif.) affinity column using an HPLC system operating with a low pH, step elution gradient with detection at 280 nm. […]

[5] = tested on: Cell Line 4 (CHO) expressing DVD2; assay: Acidic species variants (WCX-10), Cell Line 4 shake flask culture
Procedure: as §8
as §7, with “The column was regenerated using 100% buffer B followed be a re-equilibration period using initial condition before the injection of the next sample. Peaks eluting before the main peak were termed ‘acidic peaks’ and peaks eluting after the main peak were called ‘basic peaks’ (FIG. 2).” left out
as §5

| SMILES | cell growth profile vs unsupplemented control [1] | ratio of acidic region to unsupplemented control ([2]; 0.1 g/L in CDFM) | ratio of acidic region to unsupplemented control ([2]; 1 g/L in CDFM) | concentration above which peak viable cell density dropped lower than unsupplemented control [1] | relative harvest titer vs unsupplemented control ([1]; 0.01 g/L in CDFM) | relative harvest titer vs unsupplemented control ([1]; 0.1 g/L in CDFM) | relative harvest titer vs unsupplemented control ([1]; 1 g/L in CDFM, statistically significant) | drop in harvest titer ([1]; CDFM supplemented to 1 g/L, Cell Line 1) | harvest cell viability ([1]; Chinese hamster, 1 g/L) | drop in absolute acidic species percentage points ([3]; 3 L bioreactor) | relative total AR (ratio to Day 8 value of unsupplemented control) ([3]; bioreactor) | concentration above which peak viable cell density dropped lower than unsupplemented control [4] | increase in harvest titer ([4]; CDFM supplemented to 1 g/L, Cell Line 4) | ratio of acidic region to unsupplemented control ([5]; 0.1 g/L in CDFM) | ratio of acidic region to unsupplemented control ([5]; 1 g/L in CDFM) |
| --- | --- | --- | --- | --- | --- | --- | --- | --- | --- | --- | --- | --- | --- | --- | --- |
| O=c1c(-c2ccc(O)cc2)coc2cc(O)cc(O)c12 [genistein] | lower than the unsupplemented control condition | – | – | – | – | – | – | – | – | – | – | – | – | – | – |
| C[C@@H]1O[C@@H](OC[C@H]2O[C@@H](Oc3c(-c4ccc(O)c(O)c4)oc4cc(O)cc(O)c4c3=O)[C@H](O)[C@@H](O)[C@@H]2O)[C@H](O)[C@H](O)[C@H]1O [rutin] | – | 0.97 | 0.65 | higher than 0.05 g/L | 0.98 | 0.93 | 0.78 | at most 22% | 76% | 5% | 1.00 | > 100 µg/mL | 9% | 0.75 | 0.69 |
| C[C@@H]1O[C@@H](O[C@H]2[C@H](Oc3cc(O)c4c(c3)O[C@H](c3ccc(O)cc3)CC4=O)O[C@H](CO)[C@@H](O)[C@@H]2O)[C@H](O)[C@H](O)[C@H]1O [naringin] | lower than the unsupplemented control condition | – | – | – | – | – | – | – | – | – | – | – | – | – | – |
